Assay [1] has as its system PA0123 patient-derived human pancreatic xenograft tumors. Nature of the assay: PA0123 patient-derived pancreatic xenograft, combination with gemcitabine. The format is in vivo, female NSG mice. The conditions noted are these: 100 mg/kg IP, [q3dX4]X2. As to the method:
The effect of anti-DLL4-VEGF DVD-Igs in combination with chemotherapy on tumor growth was evaluated on PA0123 patient-derived human pancreatic xenograft tumors in female NSG mice. Briefly, frozen tumor fragments were implanted subcutaneously into the right hind flank. Tumors were allowed to establish for 28 days, at which point tumor volume was determined using electronic caliper measurements using the formula: L×W^2/2. Mice were allocated into treatment groups (n=7 per group) so that each cohort had equivalent mean tumor volume of 193 mm^3 prior to initiation of therapy. Animals were dosed with gemcitabine and/or anti-DLL4-VEGF DVD-Ig, at the dose and schedule in Table 31. Tumor volume was measured twice a week for the duration of the experiment.
Background: In xenograft studies the graft and the host belong to different species.

Assay [2] deals with U87-MG human glioblastoma xenograft tumors. As to the kind of experiment: U87-MG glioblastoma xenograft, combination with Temozolomide (Example 6). The format is in vivo, female SCID mice. The conditions noted are these: 5 mg/kg IP. As to the method:
The effect of anti-DLL4/anti-VEGF DVDs in combination with chemotherapy on tumor growth was evaluated on U87-MG human glioblastoma xenograft tumors in female SCID mice. Briefly, 3×10^6 cells were inoculated subcutaneously into the right hind flank. Tumors were allowed to establish for 22 days, at which point tumor volume was determined using electronic caliper measurements using the formula: L×W^2/2. Mice were allocated into treatment groups (n=10 per group) so that each cohort had equivalent mean tumor volume of 207 mm^3 prior to initiation of therapy. Animals were dosed intraperitoneally with a single dose of Temozolomide® and/or four weekly doses of anti-DLL4/anti-VEGF DVD, with tumor volume measured twice a week for the duration of the experiment.

Assay [3] has the same test system. As to the kind of experiment: U87-MG glioblastoma xenograft, combination with temozolomide (Example 11). In kind it is in vivo, female SCID mice. The settings on record: 5 mg/kg IP, qdX1. As to the method: (§1) The effect of anti-DLL4-VEGF DVD-Igs in combination with chemotherapy on tumor growth was evaluated on U87-MG human glioblastoma xenograft tumors in female SCID mice. Briefly, 3×10^6 cells were inoculated subcutaneously into the right hind flank. Tumors were allowed to establish for 13 days, at which point tumor volume was determined using electronic caliper measurements using the formula: L×W^2/2. Mice were allocated into treatment groups (n=10 per group) so that each cohort had equivalent mean tumor volume of 207 mm^3 prior to initiation of therapy. Animals were dosed with temozolomide, anti-VEGF mAb, and/or anti-DLL4-VEGF DVD-Ig at the dose and schedule in Table 30. Tumor volume was measured twice a week for the duration of the experiment.

Assay [4] has as its system MDA-MB-231-luc human breast xenograft tumors. Nature of the assay: MDA-MB-231-luc breast xenograft, combination with paclitaxel. The format is in vivo, female SCID mice. The settings on record: 25 mg/kg IP, q4dX3. As to the method: The effect of anti-DLL4-VEGF DVD-Igs in combination with chemotherapy on tumor growth was evaluated on MDA-MB-231-luc human breast xenograft tumors in female SCID mice. Briefly, 2×10^6 cells were implanted in the mammary fat pad. Tumors were allowed to establish for 13 days, at which point tumor volume was determined using electronic caliper measurements using the formula: L×W^2/2. Mice were allocated into treatment groups (n=10 per group) so that each cohort had equivalent mean tumor volume of 150 mm^3 prior to initiation of therapy. Animals were dosed with paclitaxel and/or anti-DLL4-VEGF DVD-Ig, at the dose and schedule in Table 32. Tumor volume was measured twice a week for the duration of the experiment. Additionally, bioluminescent images were acquired to monitor and track spontaneous metastasis of cancer cell to the lung and/or lymph nodes Results are shown in Table 32.

Assay [5] relates to SUM149PT human breast xenograft tumors. As to the kind of experiment: SUM149PT breast xenograft, combination with paclitaxel (Table 33). The settings on record: 25 mg/kg IP, [q4dX3]X4. The format is in vivo, female SCID mice. As to the method: (§2) The effect of anti-DLL4-VEGF DVD-Igs in combination with chemotherapy on tumor growth was evaluated on SUM149PT human breast xenograft tumors in female SCID mice. Briefly, 1×10^6 cells were inoculated subcutaneously into the right hind flank. Tumors were allowed to establish for 28 days, at which point tumor volume was determined using electronic caliper measurements using the formula: L×W^2/2. Mice were allocated into treatment groups (n=9 per group) so that each cohort had equivalent mean tumor volume of 183 mm^3 prior to initiation of therapy. Animals were dosed with paclitaxel and/or anti-DLL4-VEGF DVD-Ig, at the dose and schedule in Table 33. Tumor volume was measured twice a week for the duration of the experiment.

Assay [6] has the same test system. Nature of the assay: SUM149PT breast xenograft, combination with paclitaxel and anti-VEGF mAb (Table 34). In kind it is in vivo, female SCID mice. The conditions noted are these: 25 mg/kg IP, [q4dX3]X4; day 18 post size match. On the procedure: as §2, with “25” for “28”, “(n=10” for “(n=9”, “228” for “183”, “paclitaxel, anti-VEGF mAb” for “paclitaxel”, “34.” for “33.”

In assay [7] the test system is SW-48 human colon xenograft tumors. As to the kind of experiment: SW-48 colon xenograft, combination with irinotecan. In kind it is in vivo, female SCID mice. The settings on record: 60 mg/kg IP, q3dX4. On the procedure:
as §1, with “SW-48” for “U87-MG”, “colon” for “glioblastoma”, “5×10^6” for “3×10^6”, “211” for “207”, “irinotecan,” for “temozolomide,”, “27.” for “30.”

Assay [8] relates to HT-29 human colon xenograft tumors. As to the kind of experiment: HT-29 colon xenograft, combination with irinotecan. The settings on record: 60 mg/kg IP, q3dX4. The format is in vivo, female SCID mice. As to the method:
The effect of anti-DLL4-VEGF DVD-Igs in combination with chemotherapy on tumor growth was evaluated on HT-29 human colon xenograft tumors in female SCID mice. Briefly, 2×10^6 cells were inoculated subcutaneously into the right hind flank. Tumors were allowed to establish for 25 days, at which point tumor volume was determined using electronic caliper measurements using the formula: L×W^2/2. Mice were allocated into treatment groups (n=10 per group) so that each cohort had equivalent mean tumor volume of 209 mm^3 prior to initiation of therapy. Animals were dosed with irinotecan and/or anti-DLL4-VEGF DVD-Ig, at the dose and schedule in Table 29. Tumor volume was measured twice a week for the duration of the experiment.

In a further assay the target is T1, human DLL4529 (Homo sapiens, UniProt Q9NR61).
T1 construct: a purified recombinant DLL4 extracellular domain (ECD)
Nature of the assay: BIACORE surface plasmon resonance binding kinetics, human DLL4. The conditions noted are these: BIAcore human DLL4529, 25° C. On the procedure:
A BIACORE assay (Biacore, Inc, Piscataway, N.J.) was used to evaluate the binding of DVDs to a purified recombinant DLL4 extracellular domain (ECD) or to VEGF165, as determined by surface plasmon resonance-based measurements made on a Biacore 2000, Biacore 3000 or Biacore T100 (GE Healthcare, Piscataway, N.J.) at 25° C. For DLL4 binding kinetic measurements the assay buffer was HBS-EPB: 10 mM Hepes, pH7.5, 150 mM NaCl, 3 mM EDTA, 0.005% Tween 20, 0.1 mg/ml BSA (Sigma A7906). For VEGF binding kinetic measurements the assay buffer was HBS-EP+(3N01B): 10 mM Hepes, pH7.5, 300 mM NaCl, 3 mM EDTA, 0.05% Tween 20, 0.1 mg/ml BSA (Sigma A7906). For example, approximately 9000 RU of goat anti-human Fc specific polyclonal antibody (Thermo Fisher Scientific Inc., Rockford, Ill.) diluted in 10 mM sodium acetate (pH 4.5) is directly immobilized across a CM5 research grade biosensor chip using a standard amine coupling kit according to manufacturer's instructions and procedures at 25 ug/ml. […] The equilibrium dissociation constant KD (M) of the reaction between antibodies and the target antigen is then calculated from the kinetic rate constants by the following formula: KD=Koff/Kon. Binding is recorded as a function of time and kinetic rate constants are calculated. In this assay, on-rates as fast as 10^6 M^−1s^−1 and off-rates as slow as 10^−6 s^−1 can be measured.
A general note: SPR reads the build-up and loss of mass on a sensor chip optically.

Marks after values point to notes of the source that are not given here.

`Nc1ccn([C@@H]2O[C@H](CO)[C@@H](O)C2(F)F)c(=O)n1` [gemcitabine, reference compound]: in assay [1] (day 38 post size match), the “% TGI (Percent tumor growth inhibition)” value was 48** %. Further, the “% TGD (Percent tumor growth delay)” value in assay [1] (endpoint of 1000 mm^3) is given as 43** %.
In the case of `Cn1nnc2c(C(N)=O)ncn2c1=O` [Temozolomide, reference compound], the “% TGI (Percent tumor growth inhibition)” value in [2] (qdX1, day 19 post size match) is recorded as 65*** %; in [3] (day 19 post size match), 65*** %. Further, the “% TGD (Percent tumor growth delay)” value in assay [2] (qdX1, endpoint of 1000 mm^3) is 45*** %; in [3] (endpoint of 1000 mm^3), 45*** %.
Consider `CC(=O)O[C@H]1C(=O)[C@@]2(C)[C@H]([C@H](OC(=O)c3ccccc3)[C@]3(O)C[C@H](OC(=O)[C@H](O)[C@@H](NC(=O)c4ccccc4)c4ccccc4)C(C)=C1C3(C)C)[C@]1(OC(C)=O)CO[C@@H]1C[C@@H]2O` [paclitaxel, reference compound], for which the “% met incidence (Percent of animals with detectable signal in the lung and/or lymph nodes)” value in assay [4] (bioluminescent imaging, day 22 post size match, treatment control group 100%) is recorded as 40* %. For the same molecule, the “% TGI (Percent tumor growth inhibition)” value in assay [4] (day 15 post size match) was 78*** %; in assay [5] (day 22 post size match), 60*** %; in [6], 50* %. Besides, the entries for the “% TGD (Percent tumor growth delay)” value in [4] (endpoint of 1000 mm^3) and in [5] (endpoint of 1000 mm^3) were 106*** % and 173*** %, respectively.
Regarding `CCc1c2c(nc3ccc(OC(=O)N4CCC(N5CCCCC5)CC4)cc13)-c1cc3c(c(=O)n1C2)COC(=O)[C@]3(O)CC` [irinotecan, reference compound], the “% TGI (Percent tumor growth inhibition)” value is 77*** % in assay [7] (day 18 post size match) and 47* % in [8] (day 20 post size match). For the same molecule, the “% TGD (Percent tumor growth delay)” value was 106*** % in [7] (endpoint of 1000 mm^3) and 60* % in assay [8] (endpoint of 1000 mm^3).

B1: h1A11.1: humanized anti-DLL4 mAb, parent antibody; VH SEQ ID NO: 39, VL SEQ ID NO: 40 (antibody, V domains shown)
VH: EVQLVESGGGLVQPGGSLRLSCAASGFTFSNFPMAWVRQAPGKGLEWVATISSSDGTTYYRDSVKGRFTISRDNAKNSLYLQMNSLRAEDTAVYYCARGYYNSPFAYWGQGTLVTVSS
VL: DIQMTQSPSSLSASVGDRVTITCRASEDIYSNLAWYQQKPGKAPKLLIYDTNNLADGVPSRFSGSGSGTDFTLTISSLQPEDFATYYCQQYNNYPPTFGQGTKLEIKR
In the assay with human DLL4529, B1 displayed a Koff of 0.00193 s⁻¹ and a Kon of 160000 M⁻¹ s⁻¹.
